Assay: xn = mol fraction of the nth substance listed

Nc1ccccc1 + CCCCOCCO
viscosity [mPa·s]
Settings	298 K	303 K	303.15 K	308 K	313 K	318 K
101 kPa, x1 = 0.138	–	–	2.999	–	–	–
101 kPa, x1 = 0.2648	–	–	3.156	–	–	–
101 kPa, x1 = 0.3818	–	–	3.287	–	–	–
101 kPa, x1 = 0.49	–	–	3.4	–	–	–
101 kPa, x1 = 0.5903	–	–	3.486	–	–	–
101 kPa, x1 = 0.6837	–	–	3.553	–	–	–
101 kPa, x1 = 0.7708	–	–	3.614	–	–	–
101 kPa, x1 = 0.8522	–	–	3.666	–	–	–
101 kPa, x1 = 0.9284	–	–	3.707	–	–	–
101.3 kPa, x2 = 0.0995	3.539	2.974	–	2.573	2.238	1.967
101.3 kPa, x2 = 0.1968	3.471	2.915	–	2.528	2.189	1.929
101.3 kPa, x2 = 0.2548	3.448	2.887	–	2.512	2.184	1.922
101.3 kPa, x2 = 0.3024	3.429	2.886	–	2.507	2.16	1.905
101.3 kPa, x2 = 0.3953	3.397	2.86	–	2.482	2.145	1.893
101.3 kPa, x2 = 0.4355	3.39	2.854	–	2.477	2.143	1.892
101.3 kPa, x2 = 0.5146	3.35	2.833	–	2.463	2.123	1.875
101.3 kPa, x2 = 0.5909	3.31	2.805	–	2.438	2.108	1.856
101.3 kPa, x2 = 0.6936	3.219	2.731	–	2.381	2.07	1.827
101.3 kPa, x2 = 0.8002	3.1	2.588	–	2.332	2.02	1.787
101.3 kPa, x2 = 0.8933	2.974	2.545	–	2.259	1.962	1.742

COCCOCCOCCOC + COC(C)=O
viscosity [mPa·s], 101.3 kPa
Settings	298.15 K	308.15 K	318.15 K
x1 = 0.022	0.398	0.352	0.33
x1 = 0.0473	0.424	0.378	0.352
x1 = 0.0717	0.455	0.404	0.373
x1 = 0.1255	0.527	0.465	0.425
x1 = 0.1838	0.61	0.534	0.478
x1 = 0.2145	0.649	0.561	0.512
x1 = 0.236	0.676	0.58	0.528
x1 = 0.2557	0.709	0.616	0.549
x1 = 0.3143	0.802	0.687	0.611
x1 = 0.4027	0.943	0.802	0.699
x1 = 0.4806	1.07	0.905	0.783
x1 = 0.5743	1.234	1.031	0.883
x1 = 0.6289	1.326	1.1	0.942
x1 = 0.6511	1.367	1.13	0.964
x1 = 0.7138	1.474	1.215	1.031
x1 = 0.7667	1.566	1.286	1.086
x1 = 0.7792	1.593	1.308	1.1
x1 = 0.8702	1.743	1.426	1.195
x1 = 0.9014	1.805	1.472	1.225
x1 = 0.9571	1.891	1.548	1.278
x2 = 0.0137	1.936	1.584	1.306

Nc1ccccc1 + CCCCCCCO
viscosity [mPa·s], 100 kPa
Settings	x1 = 0.0821	x1 = 0.1633	x1 = 0.2429	x1 = 0.3578	x1 = 0.4421	x1 = 0.5517	x1 = 0.6514	x1 = 0.7434	x1 = 0.8522	x1 = 0.9421
293.15 K	6.21	5.64	5.21	4.74	4.45	4.11	3.94	3.86	3.86	4.1
303.15 K	4.48	4.11	3.82	3.46	3.23	2.99	2.86	2.79	2.82	2.97
313.15 K	3.31	3.05	2.85	2.61	2.46	2.3	2.22	2.19	2.22	2.34
323.15 K	2.51	2.36	2.2	2.01	1.91	1.8	1.75	1.73	1.75	1.84

Nc1ccccc1 + CCCCCO
viscosity [mPa·s]
Settings	293.15 K	303.15 K	313.15 K	323.15 K
100 kPa, x1 = 0.0802	3.66	2.77	2.11	1.66
100 kPa, x1 = 0.1304	–	2.664	2.018	–
100 kPa, x1 = 0.1536	3.42	2.6	2.01	1.57
100 kPa, x1 = 0.2363	3.26	2.48	1.93	1.52
100 kPa, x1 = 0.2524	–	2.309	1.697	–
100 kPa, x1 = 0.3418	3.15	2.4	1.86	1.48
100 kPa, x1 = 0.3885	–	1.947	1.361	–
100 kPa, x1 = 0.4371	3.11	2.34	1.84	1.47
100 kPa, x1 = 0.4944	–	1.724	1.147	–
100 kPa, x1 = 0.5521	3.12	2.32	1.84	1.47
100 kPa, x1 = 0.5745	–	1.627	1.051	–
100 kPa, x1 = 0.6518	3.21	2.37	1.88	1.5
100 kPa, x1 = 0.6878	–	1.619	1.031	–
100 kPa, x1 = 0.7411	3.35	2.47	1.96	1.56
100 kPa, x1 = 0.8105	–	1.865	1.245	–
100 kPa, x1 = 0.8487	3.63	2.66	2.12	1.67
100 kPa, x1 = 0.924	–	2.42	1.75	–
100 kPa, x1 = 0.9425	4.04	2.95	2.32	1.83
101.33 kPa, x2 = 0.1207	3.714	–	–	–
101.33 kPa, x2 = 0.2883	3.273	–	–	–
101.33 kPa, x2 = 0.3221	3.227	–	–	–
101.33 kPa, x2 = 0.3789	3.161	–	–	–
101.33 kPa, x2 = 0.4074	3.138	–	–	–
101.33 kPa, x2 = 0.5661	3.087	–	–	–
101.33 kPa, x2 = 0.7695	3.258	–	–	–
101.33 kPa, x2 = 0.8055	3.326	–	–	–
101.33 kPa, x2 = 0.8557	3.444	–	–	–
101.33 kPa, x2 = 0.9099	3.605	–	–	–
101.33 kPa, x2 = 0.9484	3.756	–	–	–
101.33 kPa, x2 = 0.9525	3.775	–	–	–

— the CheMixHub viscosity set
